The supplement of paper PMC10307832

Legend:
Experiment in all cases: relative viability (nuclei count vs DMSO), 5 days (fraction); higher = more cells survive
[1] = compound: CC1(C)CCC(CN2CCN(c3ccc(C(=O)NS(=O)(=O)c4ccc(NCC5CCOCC5)c([N+](=O)[O-])c4)c(Oc4cnc5[nH]ccc5c4)c3)CC2)=C(c2ccc(Cl)cc2)C1 [Venetoclax] + CC1(C)CCC(c2ccc(Cl)cc2)=C(CN2CCN(c3ccc(C(=O)NS(=O)(=O)c4ccc(N[C@H](CCN5CCOCC5)CSc5ccccc5)c(S(=O)(=O)C(F)(F)F)c4)cc3)CC2)C1 [Navitoclax] (partner 0.5 µM)
Procedure, shortened: (§1)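 The day after seeding in 1536-well plates, lung cancer cell lines were treated by pin tool with a single drug, or with a fixed anchor-drug dose together with five library-drug doses (not always all listed) in √10 steps. After 5 days, a combined fix-and-stain solution (final 0.05% Triton X-100, 1% formaldehyde, 1 ug/ml Hoechst) was added. Nuclei counted on 4× images gave relative viability as treated counts over vehicle counts, reported as the median of duplicate plates.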

[2] = compound: CC1(C)CCC(CN2CCN(c3ccc(C(=O)NS(=O)(=O)c4ccc(NCC5CCOCC5)c([N+](=O)[O-])c4)c(Oc4cnc5[nH]ccc5c4)c3)CC2)=C(c2ccc(Cl)cc2)C1 [Venetoclax] + CS(=O)(=O)CCNCc1ccc(-c2ccc3ncnc(Nc4ccc(OCc5cccc(F)c5)c(Cl)c4)c3c2)o1 [Lapatinib] (partner 2 µM)
Procedure, shortened: as §1

[3] = compound: Cn1cnc2c(F)c(Nc3ccc(Br)cc3Cl)c(C(=O)NOCCO)cc21 [Selumetinib] + CCNC(=O)c1noc(-c2cc(C(C)C)c(O)cc2O)c1-c1ccc(CN2CCOCC2)cc1 [Luminespib] (partner 0.01 µM)
Procedure, shortened: as §1

[4] = compound: Cn1cnc2c(F)c(Nc3ccc(Br)cc3Cl)c(C(=O)NOCCO)cc21 [Selumetinib] + Cc1nc(Nc2ncc(C(=O)Nc3c(C)cccc3Cl)s2)cc(N2CCN(CCO)CC2)n1 [Dasatinib] (partner 0.075 µM)
Procedure, shortened: as §1

Cell Line	relative viability ([1]; first compound 0.01 µM)	relative viability ([1]; first compound 0.03162 µM)	relative viability ([1]; first compound 0.1 µM)	relative viability ([1]; first compound 0.3162 µM)	relative viability ([1]; first compound 1 µM)	relative viability ([2]; first compound 0.01 µM)	relative viability ([2]; first compound 0.03162 µM)	relative viability ([2]; first compound 0.1 µM)	relative viability ([2]; first compound 0.3162 µM)	relative viability ([2]; first compound 1 µM)	relative viability ([3]; first compound 0.02 µM)	relative viability ([3]; first compound 0.06325 µM)	relative viability ([3]; first compound 0.2 µM)	relative viability ([3]; first compound 0.6325 µM)	relative viability ([4]; first compound 0.02 µM)	relative viability ([4]; first compound 0.06325 µM)	relative viability ([4]; first compound 0.2 µM)	relative viability ([4]; first compound 0.6325 µM)
NCI-H2087	1.01	0.982	0.921	0.942	0.974	0.958	1.16	1.07	1.09	1.05	0.167	0.193	0.148	0.147	0.535	0.293	0.273	0.13
COR-L 105	0.743	0.755	0.782	0.794	0.748	0.418	0.384	0.326	0.355	0.367	0.769	0.689	0.46	0.404	0.328	0.239	0.224	0.22
SW 1573	0.877	1.02	0.971	1.03	0.997	1.15	0.979	0.935	1.08	0.966	0.207	0.168	0.214	0.228	0.589	0.362	0.534	0.446
NCI-H1355	0.892	0.972	0.804	0.915	0.897	1.02	1.02	0.968	0.93	0.993	0.665	0.736	0.6	0.476	0.717	0.631	0.543	0.413
RERF-LC-KJ	0.994	0.961	0.794	1.08	0.89	0.813	0.844	0.838	0.832	0.832	1.32	0.924	1.06	0.987	0.883	0.792	0.714	0.766
NCI-H727	0.375	0.462	0.36	0.323	0.516	0.904	1	0.857	0.791	0.753	0.257	0.241	0.206	0.267	0.308	0.299	0.267	0.279
NCI-H1734	0.767	1	0.78	0.811	0.787	1.1	0.993	0.925	0.921	1.07	0.195	0.176	0.17	0.152	0.506	0.531	0.466	0.549
NCI-H2126	0.886	0.853	0.851	0.808	0.855	0.738	0.731	0.734	0.769	0.73	0.839	0.756	0.792	0.782	0.484	0.483	0.498	0.515
NCI-H1792	0.649	0.71	0.696	0.671	0.601	0.933	0.946	0.869	0.916	0.803	0.387	0.408	0.379	0.313	0.787	0.802	0.704	0.597
NCI-H23	0.869	0.774	0.774	0.82	0.704	1.11	1.14	0.942	1.12	0.984	0.24	0.215	0.188	0.175	0.808	0.644	0.5	0.397
EMC-BAC-2	1.09	1.17	1.14	1.15	1.07	0.88	0.878	0.731	0.847	0.827	1.19	1.18	1.1	1.12	0.352	0.419	0.379	0.391
NCI-H2023	0.984	0.987	0.924	0.96	0.86	0.935	0.888	0.748	0.898	0.627	0.947	0.669	0.575	0.575	0.534	0.484	0.562	0.448
NCI-H647	1.16	1.26	1.22	1.16	0.901	1.14	1.15		1.21	0.978	0.195	0.141	0.125	0.136	0.187	0.2	0.167	0.154
NCI-H1975	1.15	1.15	1.05	1.21	1.11	1.02	0.875	0.903	0.948	0.863	0.143	0.209	0.175	0.183	0.333	0.299	0.272	0.269
NCI-H1437	1.07	1.09	1.04	1.04	0.977	0.766	0.873	0.758	0.742	0.703	1.15	1.13	1.03	0.782	0.334	0.231	0.197	0.215
NCI-H1666	0.616	0.986	0.978	0.971	0.901	0.536	0.664	0.519	0.624	0.515	0.996	0.829	0.943	0.757	0.759	0.831	0.837	0.729
NCI-H2085	0.952	1.16	1.17	1.26	1.06	0.658	0.849	0.749	0.821	0.747	0.527	0.402	0.376	0.326	0.25	0.23	0.204	0.215

Cell Line	relative viability ([1]; first compound 0.01 µM)	relative viability ([1]; first compound 0.03162 µM)	relative viability ([1]; first compound 0.1 µM)	relative viability ([1]; first compound 0.3162 µM)	relative viability ([1]; first compound 1 µM)	relative viability ([2]; first compound 0.01 µM)	relative viability ([2]; first compound 0.03162 µM)	relative viability ([2]; first compound 0.1 µM)	relative viability ([2]; first compound 0.3162 µM)	relative viability ([2]; first compound 1 µM)	relative viability ([3]; first compound 0.02 µM)	relative viability ([3]; first compound 0.06325 µM)	relative viability ([3]; first compound 0.2 µM)	relative viability ([3]; first compound 0.6325 µM)	relative viability ([4]; first compound 0.02 µM)	relative viability ([4]; first compound 0.06325 µM)	relative viability ([4]; first compound 0.2 µM)	relative viability ([4]; first compound 0.6325 µM)
LXF-289	0.926	0.988	0.952	0.868	0.829	0.956	0.925	0.874	0.906	0.809	0.692	0.688	0.491	0.544	0.223	0.315	0.324	0.311
NCI-H322M	1.25	1.11	1.11	1.35	1.16	0.659	0.601	0.552	0.533	0.57	0.739	0.547	0.572	0.481	0.248	0.237	0.24	0.263
LU99A	0.783	0.936	0.708	0.833	0.741	0.865	1	0.884	0.885	0.986	0.246	0.259	0.202	0.201	0.58	0.643	0.509	0.6
PC-14	0.986	1.03	0.936	0.954	0.926	0.367	0.328	0.291	0.361	0.323	0.147	0.177	0.163	0.151	0.265	0.26	0.256	0.217
HARA	0.996	1.17	1.1	1.11	1.15	0.876	0.68	0.647	0.822	0.758	0.708	0.783	0.536	0.168	0.28	0.288	0.247	0.271
SK-MES-1	1.25	1.16	1.2	1.25	1.09	0.462	0.53	0.461	0.425	0.463	0.74	0.559	0.344	0.375	0.284	0.271	0.235	0.226
NCI-H1650	1.14	1.3		1.02	0.968	0.764	0.873		1.01	0.81	0.194	0.2	0.198	0.202	0.333	0.298	0.323	0.337
HOP-62	0.988	1.17	1.09	1.13	1	1.29	1.12	1.02	1.01	0.896	0.862	0.754	0.656	0.384	0.583	0.526	0.387	0.249
LK-2	0.809	0.945	0.763	0.816	0.845	0.973	0.99	0.846	0.894	0.767	0.151	0.136	0.19	0.165	0.281	0.31	0.308	0.389
BEN	0.36	0.0558	0.072	0.0753	0.0581	0.745	0.781	0.735	0.626	0.613	0.28	0.83	0.404	0.347	0.295	0.341	0.368	0.371
NCI-H2405	0.865	1.02		0.941	0.91	1.07	1.08		1.01	1	0.603	0.597	0.426	0.327	0.216	0.22	0.17	0.187
NCI-H1395	1.15	1.12	1.16	1.13	1.55	1.37	1.09	0.958	1.09	0.964	0.575	0.713	0.643	0.694	0.408	0.415	0.432	0.445
201T	1.17	1.24	1.27	1.19	1.21	1.07	0.943	0.959	1.02	1.08	1.08	1.03	0.962	0.906	0.589	0.571	0.585	0.555
NCI-H2170	0.746	0.688	0.521	0.509	0.531	0.255	0.29	0.255	0.254	0.268	0.358	0.845	0.651	0.617	0.533	0.515	0.48	0.412
NCI-H596	0.892	0.935	0.916	0.887	0.919	1.09	1.24	0.971	1.15	1.11	1.13	1.06	0.914	0.725	0.625	0.546	0.565	0.483
NCI-H838	1.21	1.14	1.1	1.11	1.11	0.977	1.07	0.962	0.978	0.891	0.369	0.331	0.207	0.259	0.275	0.254	0.304	0.267
NCI-H1651	1.06	0.964	0.964	1.06	1.09	0.92	0.885	0.747	0.905	0.764	0.757	0.828	0.835	0.615	0.387	0.378	0.402	0.362
